Values after ≈ are worked out from the molar mass of the structure shown.
What was measured:
[1] = target: T1, C-X-C chemokine receptor type 3 (Homo sapiens, UniProt P49682); experiment: Antagonist activity at human recombinant CXCR3 in human venous blood assessed as receptor internalization measured for 30 mins in presence of CXCL10 by flow cytometric analysis
T1 sequence (P49682 whole entry): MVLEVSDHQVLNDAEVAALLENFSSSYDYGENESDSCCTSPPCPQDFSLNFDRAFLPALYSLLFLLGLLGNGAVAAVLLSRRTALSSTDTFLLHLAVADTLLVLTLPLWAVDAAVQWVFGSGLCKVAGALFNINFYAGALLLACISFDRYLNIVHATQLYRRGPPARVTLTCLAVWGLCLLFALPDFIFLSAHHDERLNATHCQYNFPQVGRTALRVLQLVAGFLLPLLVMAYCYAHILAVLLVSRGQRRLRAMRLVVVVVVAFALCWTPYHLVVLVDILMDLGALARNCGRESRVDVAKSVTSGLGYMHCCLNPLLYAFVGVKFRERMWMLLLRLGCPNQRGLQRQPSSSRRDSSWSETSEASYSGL

[2] = target: hERG (KCNH2) (Homo sapiens, UniProt Q12809); experiment: Inhibition of hERG expressed in CHO cells at 3 uM at -80 mV holding potential assessed as current block incubated for 3 mins by Qpatch clamp method relative to control
[3] = target: T1, C-X-C chemokine receptor type 3; experiment: Antagonist activity at human recombinant CXCR3 expressed in CHO-K1 cells measured after 10 mins in presence of CXCL10 by FLIPR analysis
[4] = in vitro; conditions: mouse, microsomes
[5] = Lipophilicity, log D of the compound at pH 7.4; conditions: buffer
[6] = Solubility of the compound in FaSSIF; conditions: simulated gi fluid
[7] = in vivo; conditions: Balb/c, mouse, po, 10 mg/kg
[8] = Unbound fraction in human plasma by equilibrium based LC-MS/MS analysis
[9] = Unbound fraction in mouse plasma by equilibrium based LC-MS/MS analysis
[10] = in vivo; conditions: Balb/c, mouse, po, 10 mg/kg; remark: listed apart in the source
[11] = Solubility of the compound in FeSSIF; conditions: simulated gi fluid
[12] = in vitro; conditions: human, microsomes
[13] = in vivo; conditions: Balb/c, mouse, po, 10 mg/kg; remark: listed apart in the source

Sequence of hERG (KCNH2) (Q12809 whole entry): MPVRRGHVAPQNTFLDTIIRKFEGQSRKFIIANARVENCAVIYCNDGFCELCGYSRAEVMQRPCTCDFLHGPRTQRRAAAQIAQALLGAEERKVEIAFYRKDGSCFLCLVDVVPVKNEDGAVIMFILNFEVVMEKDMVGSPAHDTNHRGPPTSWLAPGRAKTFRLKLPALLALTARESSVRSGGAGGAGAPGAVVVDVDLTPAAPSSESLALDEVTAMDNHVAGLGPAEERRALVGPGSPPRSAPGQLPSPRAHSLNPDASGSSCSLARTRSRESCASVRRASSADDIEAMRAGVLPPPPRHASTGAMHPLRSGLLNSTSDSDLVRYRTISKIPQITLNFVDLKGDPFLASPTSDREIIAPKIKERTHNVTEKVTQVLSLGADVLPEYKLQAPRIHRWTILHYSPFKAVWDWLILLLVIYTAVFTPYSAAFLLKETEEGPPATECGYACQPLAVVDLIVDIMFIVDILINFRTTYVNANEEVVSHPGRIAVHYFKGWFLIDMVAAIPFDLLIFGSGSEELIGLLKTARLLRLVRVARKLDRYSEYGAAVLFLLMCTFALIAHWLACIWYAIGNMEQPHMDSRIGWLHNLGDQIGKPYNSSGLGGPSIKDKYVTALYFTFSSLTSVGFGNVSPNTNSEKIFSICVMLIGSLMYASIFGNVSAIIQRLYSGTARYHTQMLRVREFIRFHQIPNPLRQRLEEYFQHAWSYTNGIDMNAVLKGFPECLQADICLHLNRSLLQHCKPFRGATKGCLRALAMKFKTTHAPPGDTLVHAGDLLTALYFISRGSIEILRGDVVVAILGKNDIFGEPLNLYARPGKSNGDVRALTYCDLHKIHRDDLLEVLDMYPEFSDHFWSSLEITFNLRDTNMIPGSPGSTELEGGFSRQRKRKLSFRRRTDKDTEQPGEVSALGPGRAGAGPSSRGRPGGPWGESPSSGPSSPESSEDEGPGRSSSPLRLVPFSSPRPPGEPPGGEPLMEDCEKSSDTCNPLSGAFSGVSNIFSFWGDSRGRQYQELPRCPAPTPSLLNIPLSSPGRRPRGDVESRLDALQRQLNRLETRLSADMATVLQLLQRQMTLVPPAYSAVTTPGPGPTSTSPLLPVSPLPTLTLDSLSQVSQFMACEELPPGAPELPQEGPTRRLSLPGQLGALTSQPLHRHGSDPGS

Row | SMILES | IC50 [1] [nM] | inhibition at 0.05 h, 3 µM [2] [%] | IC50 [3] [nM] | further results
1 | C[C@@H]1CN(c2sc(C(F)(F)F)nc2-c2nc3ccccc3n2C)CCN1C(=O)Cn1cccn1 | 3560 | 46 | 110 | –
2 | Cc1nnc(CC(=O)N2CCN(c3sc(C(F)(F)F)nc3-c3nc4ccccc4[nH]3)C[C@H]2C)o1 | 2470 | 36 | 31 | –
3 | Cc1nc(C)n(CC(=O)N2CCN(c3sc(C(F)(F)F)nc3-c3nc4c(C(F)(F)F)cccc4[nH]3)C[C@H]2C)n1 | 747 | 52 | 6 | –
4 | Cc1nn(CC(=O)N2CCN(c3sc(C(F)(F)F)nc3-c3nc4ccccc4[nH]3)C[C@H]2C)cc1CN(C)C | 330 | 38 | 2.7 | microsomal CLint at 0.25 h, 1 µM [4]: 29 µL/min/mg; logD [5]: 2.4; solubility [6]: 649 µg/mL (≈ 1190 µM); Cmax [7]: 258 ng/mL; fraction unbound [8]: 0.143; fraction unbound [9]: 0.053; Tmax [10]: 120 min; solubility [11]: 645 µg/mL (≈ 1180 µM); microsomal CLint at 0.25 h, 1 µM [12]: 37 µL/min/mg; AUC [13]: 833 ng·h/mL
5 | Cc1nc(C)n(CC(=O)N2CCN(c3sc(C(F)(F)F)nc3-c3nc4ccc(C5CCN(C)CC5)cc4[nH]3)C[C@H]2C)n1 | – | -5 | – | logD [5]: 3.4; Cmax [7]: 30.5 ng/mL; Tmax [10]: 180 min; solubility [11]: > 1020 µg/mL; microsomal CLint at 0.25 h, 1 µM [12]: 27 µL/min/mg; AUC [13]: 54.6 ng·h/mL
6 | C[C@@H]1CN(c2sc(C(F)(F)F)nc2-c2nc3ccc(N4CCN(C)CC4)cc3[nH]2)CCN1C(=O)Cn1cccn1 | 122 | 0 | 1.6 | –
7 | C[C@@H]1CN(c2sc(C(F)(F)F)nc2-c2nc3ccccc3[nH]2)CCN1C(=O)Cn1cc(Cl)cn1 | 251 | 70 | 1.7 | –
8 | C[C@@H]1CN(c2sc(C(F)(F)F)nc2-c2nc3ccccc3[nH]2)CCN1C(=O)Cn1cc(C2CCN(C)CC2)cn1 | 1690 | 74 | 15 | –
9 | C[C@@H]1CN(c2sc(C(F)(F)F)nc2-c2nc3ccccc3[nH]2)CCN1C(=O)Cc1cccc2cccnc12 | 502 | 78 | 23 | –
10 | Cc1nc(C)n(CC(=O)N2CCN(c3sc(C(F)(F)F)nc3-c3nc4ccc(-n5cncn5)cc4[nH]3)C[C@H]2C)n1 | 1140 | 3 | 5.8 | –
11 | COCCn1c(-c2nc(C(F)(F)F)sc2N2CCN(C(=O)Cn3cccn3)[C@H](C)C2)nc2ccccc21 | 6890 | 2 | 150 | –
12 | C[C@@H]1CN(c2sc(C(F)(F)F)nc2-c2nc3ccc(CO)cc3[nH]2)CCN1C(=O)Cn1cnc2cccnc21 | – | 12 | 4.6 | microsomal CLint at 0.25 h, 1 µM [12]: 131 µL/min/mg
13 | C[C@@H]1CN(c2sc(C(F)(F)F)nc2-c2nc3ccccc3[nH]2)CCN1C(=O)Cn1cnc2c1CCN(C)C2 | 135 | 33 | 3.6 | logD [5]: 3; solubility [6]: > 920 µg/mL; fraction unbound [8]: 0.15; solubility [11]: > 920 µg/mL; microsomal CLint at 0.25 h, 1 µM [12]: 21 µL/min/mg
14 | C[C@@H]1CN(c2sc(C(F)(F)F)nc2-c2nc3cc(OCCO)ccc3[nH]2)CCN1C(=O)Cn1cnc2cccnc21 | 99.1 | 25 | 2.1 | microsomal CLint at 0.25 h, 1 µM [4]: 31 µL/min/mg; logD [5]: 2.4; Cmax [7]: 1760 ng/mL; fraction unbound [9]: 0.03; Tmax [10]: 15 min; solubility [11]: 549 µg/mL (≈ 936 µM); microsomal CLint at 0.25 h, 1 µM [12]: 43 µL/min/mg; AUC [13]: 519 ng·h/mL
15 | Cc1ccc(CC(=O)N2CCN(c3sc(C(F)(F)F)nc3-c3nc4ccccc4[nH]3)C[C@H]2C)cn1 | 805 | 73 | 6.1 | –
16 | C[C@@H]1CN(c2sc(C(F)(F)F)nc2-c2nc3cc(Cl)ccc3[nH]2)CCN1C(=O)Cn1cnc2cccnc21 | 38.5 | 83 | 2.8 | –
17 | Cc1nc(C)n(CC(=O)N2CCN(c3sc(C(F)(F)F)nc3-c3nc4ccc(C5CCNCC5)cc4[nH]3)C[C@H]2C)n1 | 307 | 5 | 2.2 | –

Row | SMILES | IC50 [1] [nM] | inhibition at 0.05 h, 3 µM [2] [%] | IC50 [3] [nM] | further results
18 | Cc1nc(C)n(CC(=O)N2CCN(c3sc(C(F)(F)F)nc3-c3nc4ccc(N5CCOCC5)cc4[nH]3)C[C@H]2C)n1 | 368 | 4 | 5.7 | microsomal CLint at 0.25 h, 1 µM [4]: 18 µL/min/mg; logD [5]: 2; Cmax [7]: 4320 ng/mL; Tmax [10]: 15 min; solubility [11]: 963 µg/mL (≈ 1630 µM); microsomal CLint at 0.25 h, 1 µM [12]: 19 µL/min/mg; AUC [13]: 4110 ng·h/mL
19 | Cc1nc(C)n(CC(=O)N2CCN(c3sc(C(F)(F)F)nc3-c3nc4ccc(C5CCOCC5)cc4[nH]3)C[C@H]2C)n1 | 123 | 18 | 3.3 | microsomal CLint at 0.25 h, 1 µM [4]: 46 µL/min/mg; logD [5]: 3.7; Cmax [7]: 1980 ng/mL; Tmax [10]: 18 min; solubility [11]: > 1000 µg/mL; microsomal CLint at 0.25 h, 1 µM [12]: 18 µL/min/mg; AUC [13]: 545 ng·h/mL
20 | Cc1nc(C)n(CC(=O)N2CCN(c3sc(C(F)(F)F)nc3-c3nc4ccc(OC5CNC5)cc4[nH]3)C[C@H]2C)n1 | 580 | 0 | 3.8 | –
21 | C[C@@H]1CN(c2sc(C(F)(F)F)nc2-c2nc3ccccc3[nH]2)CCN1C(=O)Cn1cccn1 | 191 | 54 | 13 | microsomal CLint at 0.25 h, 1 µM [4]: 218 µL/min/mg; logD [5]: 3.4; solubility [6]: 352 µg/mL (≈ 740 µM); Cmax [7]: 670 ng/mL; fraction unbound [8]: 0.052; fraction unbound [9]: 0.026; Tmax [10]: 15 min; solubility [11]: 734 µg/mL (≈ 1540 µM); microsomal CLint at 0.25 h, 1 µM [12]: 44 µL/min/mg; AUC [13]: 720 ng·h/mL
22 | C[C@@H]1CN(c2sc(C(F)(F)F)nc2-c2nc3ccccc3[nH]2)CCN1C(=O)Cn1c(=O)[nH]c2cccnc21 | 143 | 53 | 2.6 | –
23 | Cc1nc(C)n(CC(=O)N2CCN(c3sc(C(F)(F)F)nc3-c3nc4ccc(C(C)(C)O)c(F)c4[nH]3)C[C@H]2C)n1 | – | 18 | – | –
24 | Cc1nc(C)n(CC(=O)N2CCN(c3sc(C(F)(F)F)nc3-c3nc4cccc(C)c4[nH]3)C[C@H]2C)n1 | – | 52 | – | –
25 | COC1CCN(CC(=O)N2CCN(c3sc(C(F)(F)F)nc3-c3nc4ccccc4[nH]3)C[C@H]2C)C1 (stereo partly drawn) | – | 85 | – | –
26 | Cc1nc(C)n(CC(=O)N2CCN(c3sc(C(F)(F)F)nc3-c3nc4cc(N5CCOCC5)cc(F)c4[nH]3)C[C@H]2C)n1 | – | 6 | – | –
27 | C[C@@H]1CN(c2sc(C(F)(F)F)nc2-c2nc3ccccc3[nH]2)CCN1C(=O)CN1CCC(F)(F)CC1 | – | 84 | – | –
28 | C[C@@H]1CN(c2sc(C(F)(F)F)nc2-c2nc3ccccc3[nH]2)CCN1C(=O)CN1C(=O)OC[C@@H]1c1ccccc1 | – | 83 | – | –
29 | Cc1nc(C)n(CC(=O)N2CCN(c3sc(C(F)(F)F)nc3-c3nc4ccc(S(C)(=O)=O)cc4[nH]3)C[C@H]2C)n1 | – | 8 | – | –
30 | Cc1nc(C)n(CC(=O)N2CCN(c3sc(C(F)(F)F)nc3-c3nc4ccc(O)c(F)c4[nH]3)C[C@H]2C)n1 | – | 15 | – | –
31 | Cc1nc(C)n(CC(=O)N2CCN(c3sc(C(F)(F)F)nc3-c3nc4ccc(OC5COC5)cc4[nH]3)C[C@H]2C)n1 | – | 0 | – | –
32 | Cc1nc(C)n(CC(=O)N2CCN(c3sc(C(F)(F)F)nc3-c3nc4ccc(N5CCOCC5)c(F)c4[nH]3)C[C@H]2C)n1 | – | 25 | – | –
33 | C[C@@H]1CN(c2sc(C(F)(F)F)nc2-c2nc3ccccc3[nH]2)CCN1C(=O)Cn1ccc(C(=O)O)n1 | – | -2 | – | –
